# Measurements reported in patent publication US12446574B2, “Adjuvants for agrochemical formulations” (SYNGENTA CROP PROTECTION AG, priority 2016, dated 2025).
# Test: Storage stability of aqueous adjuvant formulations: clear isotropic single-phase solution after 24 hours at the temperature of interest
# Assay type: physicochemical
# Design: key: Pass: Samples which were found to be clear isotropic solutions after 24 hours were classified as a pass; Fail: all other results were classed as a fail
# Description: For the purposes of the present invention we define a stable formulation of adjuvant in water as one where the mixture forms a homogeneous or single phase liquid. The liquid may be a micellar solution however it will appear isotropic to the naked eye. […] This stability allows the design of products with shelf lives potentially running to several years. […]
smiles,measurement,setting,value
"COCc1cnc(C2=NC(C)(C(C)C)C(=O)N2)c(C(=O)O)c1 (stereo not drawn) [Imazamox, imazamox]",Result,"20 °C, Plurafac=0, water=40.5, imazamox=4.5, Tween 20=50, PG=5 % w/w",Pass
same,Result,"20 °C, Plurafac=0, water=45, imazamox=5, Tween 20=50 % w/w",Pass
same,Result,"20 °C, Plurafac=0, water=64.8, imazamox=7.2, Tween 20=20, PG=8 % w/w",Pass
same,Result,"20 °C, Plurafac=0, water=72, imazamox=8, Tween 20=20 % w/w",Pass
same,Result,"20 °C, Plurafac=0, water=72.9, imazamox=8.1, Tween 20=10, PG=9 % w/w",Pass
same,Result,"20 °C, Plurafac=0, water=81, imazamox=9, Tween 20=10 % w/w",Pass
same,Result,"50 °C, Plurafac=0, water=40.5, imazamox=4.5, Tween 20=50, PG=5 % w/w",Pass
same,Result,"50 °C, Plurafac=0, water=45, imazamox=5, Tween 20=50 % w/w",Pass
same,Result,"50 °C, Plurafac=0, water=64.8, imazamox=7.2, Tween 20=20, PG=8 % w/w",Pass
same,Result,"50 °C, Plurafac=0, water=72, imazamox=8, Tween 20=20 % w/w",Pass
same,Result,"50 °C, Plurafac=0, water=72.9, imazamox=8.1, Tween 20=10, PG=9 % w/w",Pass
same,Result,"50 °C, Plurafac=0, water=81, imazamox=9, Tween 20=10 % w/w",Pass
same,Result,"-5 °C, Plurafac=0, water=40.5, imazamox=4.5, Tween 20=50, PG=5 % w/w",Fail
same,Result,"-5 °C, Plurafac=0, water=45, imazamox=5, Tween 20=50 % w/w",Fail
same,Result,"-5 °C, Plurafac=0, water=64.8, imazamox=7.2, Tween 20=20, PG=8 % w/w",Pass
same,Result,"-5 °C, Plurafac=0, water=72, imazamox=8, Tween 20=20 % w/w",Pass
same,Result,"-5 °C, Plurafac=0, water=72.9, imazamox=8.1, Tween 20=10, PG=9 % w/w",Pass
same,Result,"-5 °C, Plurafac=0, water=81, imazamox=9, Tween 20=10 % w/w",Pass
same,Result,"-10 °C, Plurafac=0, water=40.5, imazamox=4.5, Tween 20=50, PG=5 % w/w",Fail
same,Result,"-10 °C, Plurafac=0, water=45, imazamox=5, Tween 20=50 % w/w",Fail
same,Result,"-10 °C, Plurafac=0, water=64.8, imazamox=7.2, Tween 20=20, PG=8 % w/w",Pass
same,Result,"-10 °C, Plurafac=0, water=72, imazamox=8, Tween 20=20 % w/w",Pass
same,Result,"-10 °C, Plurafac=0, water=72.9, imazamox=8.1, Tween 20=10, PG=9 % w/w",Pass
same,Result,"-10 °C, Plurafac=0, water=81, imazamox=9, Tween 20=10 % w/w",Pass
